# According to PubChem BioAssay (NCI):
#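 Each compound was tested at five concentrations against cells in 96-well plates for 48 hours. GI50 = concentration required for 50% inhibition of growth. TGI is the concentration that stops growth completely.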
# What was measured:
# Assay in all cases: inhibition of tumour cell growth, NCI panel, 48 h
# [1] = system: CAKI-1 renal
# [2] = system: NCI-H460 lung
# [3] = system: T-47D breast
# [4] = system: NCI-H226 lung
# [5] = system: SF-268 CNS
# [6] = system: RXF 393 renal
# [7] = system: OVCAR-5 ovarian
# [8] = system: DU-145 prostate
# [9] = system: MDA-N
# [10] = system: COLO 205 colon
Structure (SMILES),TGI [1],TGI [2],TGI [3],TGI [4],TGI [5],TGI [6],TGI [7],TGI [8],TGI [9],TGI [10],GI50 [4]
COC(c1ccsc1)C(C#N)(C#N)N=Cc1ccsc1 (stereo unspecified),19.2 µM,45.4 µM,67.7 µM,54.9 µM,33.8 µM,27 µM,46.6 µM,28.5 µM,33.4 µM,33.1 µM,–
C/C(O)=C/c1nc2ccccc2nc1/C=C(/C)O,> 100 µM,34.4 µM,36.9 µM,61.3 µM,64.6 µM,65.2 µM,79.9 µM,70.4 µM,> 100 µM,47.5 µM,–
CCCCC1(N=[N+]=[N-])C(=O)c2cccc3c2N(CCC3)C1=O (stereo unspecified),> 100 µM,> 100 µM,> 100 µM,> 100 µM,> 100 µM,> 100 µM,> 100 µM,> 100 µM,> 100 µM,> 100 µM,–
CCCSc1cc(Cl)c(C)cc1S(=O)(=O)n1ccnc1OCCCN(C)C,> 100 µM,> 100 µM,> 100 µM,> 100 µM,> 100 µM,> 100 µM,> 100 µM,> 100 µM,> 100 µM,> 100 µM,–
O=C(CCc1cccc(O)c1)NCCc1cccc(O)c1,> 100 µM,> 100 µM,> 100 µM,> 100 µM,> 100 µM,> 100 µM,> 100 µM,> 100 µM,> 100 µM,> 100 µM,–
C=CCNC1=C2C[C@@H](C)C[C@@H](OC)C(OC(=O)CCCN(C)C)[C@H](C)/C=C(\C)[C@@H](OC(N)=O)[C@H](OC)/C=C\C=C(/C)C(=O)NC(=CC1=O)C2=O (stereo partly specified),25.2 µM,13.9 µM,24.7 µM,29.4 µM,27.6 µM,18.6 µM,28.5 µM,18.1 µM,19.8 µM,6.5 µM,–
CC1(C)O[C@H](C(=O)O)[C@@H](C(=O)O)O1,> 100 µM,> 100 µM,> 100 µM,> 100 µM,> 100 µM,> 100 µM,> 100 µM,> 100 µM,> 100 µM,> 100 µM,–
COCn1c(C)c(C)c2c(=O)oc(=O)[nH]c21,> 100 µM,> 100 µM,> 100 µM,> 100 µM,> 100 µM,> 100 µM,> 100 µM,> 100 µM,> 100 µM,> 100 µM,–
COc1c2occc2c(OC)c2c(=O)c(S(=O)(=O)NC(=O)Nc3ccc(Cl)cc3)coc12,> 10 µM,> 10 µM,> 10 µM,> 10 µM,> 10 µM,> 10 µM,> 10 µM,> 10 µM,> 10 µM,> 10 µM,–
O=c1c2ccccc2oc2c1ccc1ncccc12,34.5 µM,17 µM,31.2 µM,38.9 µM,78.2 µM,44.6 µM,16.1 µM,59.5 µM,> 100 µM,94.4 µM,–
Nn1c(Cc2ccc(Cl)cc2)n[nH]c1=O,> 100 µM,> 100 µM,> 100 µM,> 100 µM,> 100 µM,> 100 µM,> 100 µM,> 100 µM,> 100 µM,> 100 µM,–
COc1c(-c2cc(C)c(Cl)c(=O)[nH]2)c(O)c(OC)c2occc12,> 100 µM,> 100 µM,> 100 µM,> 100 µM,> 100 µM,> 100 µM,> 100 µM,> 100 µM,> 100 µM,> 100 µM,–
O=C(NCC1Nc2ccncc2S(=O)(=O)N1)c1ccc(Br)cc1 (stereo unspecified),> 100 µM,> 100 µM,> 100 µM,> 100 µM,81.2 µM,> 100 µM,> 100 µM,> 100 µM,58.6 µM,> 100 µM,–
COC(=O)c1c(OC(C)=O)ccc2c1c1c(OC(C)=O)c3ccccc3c(OC(C)=O)c1n2Cc1cc(OC)cc(OC)c1,> 100 µM,> 100 µM,48.9 µM,> 100 µM,> 100 µM,> 100 µM,> 100 µM,> 100 µM,81.4 µM,> 100 µM,–
O=C(O)Cc1ccc(Oc2nc3ccccc3nc2-c2cccs2)cc1,> 100 µM,> 100 µM,63.6 µM,> 100 µM,> 100 µM,56.5 µM,> 100 µM,> 100 µM,> 100 µM,80.1 µM,–
Cc1oc2nc1C(=O)NCc1nc(cs1)C(=O)N[C@H](C(C)C)c1nc(cs1)C(=O)N[C@H]2C,> 100 µM,> 100 µM,> 100 µM,> 100 µM,> 100 µM,> 100 µM,> 100 µM,> 100 µM,> 100 µM,> 100 µM,–

Structure (SMILES),TGI [1],TGI [2],TGI [3],TGI [4],TGI [5],TGI [6],TGI [7],TGI [8],TGI [9],TGI [10],GI50 [4]
CC(C)OC(=O)c1ccc(NCC2=CC(=O)C=CC2=O)cc1Cl,6.19 µM,41 µM,7.85 µM,> 62.6 µM,35.2 µM,47.5 µM,70.1 µM,42.3 µM,25.2 µM,21.3 µM,–
CCOC(=O)c1c(SC(=O)c2cc(OC)c(OC)c(OC)c2)n(-c2ccccc2)c(=S)n(-c2ccccc2)c1=O,> 100 µM,> 100 µM,> 100 µM,> 100 µM,> 100 µM,> 100 µM,> 100 µM,> 100 µM,> 100 µM,> 100 µM,–
[O-][n+]1onc2c3nn(-c4ccccc4)nc3ccc21,> 100 µM,> 100 µM,32.4 µM,> 100 µM,> 100 µM,> 100 µM,> 100 µM,57.8 µM,> 100 µM,> 100 µM,–
CSc1nc2ccccc2c(=O)n1/N=C1\C(=O)N(CN2CCOCC2)c2ccc(Cl)cc21,> 100 µM,43.4 µM,> 100 µM,> 100 µM,> 100 µM,44.8 µM,> 100 µM,63.6 µM,> 100 µM,36.6 µM,–
CC(=O)Nc1ccc2c(C(=O)O)c(C)c(=O)[nH]c2n1,> 100 µM,> 100 µM,> 100 µM,> 100 µM,> 100 µM,> 100 µM,> 100 µM,> 100 µM,> 100 µM,> 100 µM,–
CC1(CCCC2(C)CCNC2=O)OCCO1 (stereo unspecified),> 10 µM,> 10 µM,> 10 µM,> 10 µM,> 10 µM,> 10 µM,> 10 µM,> 10 µM,> 10 µM,> 10 µM,–
COc1cc2c(cc1OCCCC(=O)Nc1cc(C(=O)Nc3cc(C(=O)Nc4cc(C(=O)NCCCN(C)C)n(C)c4)n(C)c3)n(C)c1)N=C[C@@H]1CCCN1C2=O,1.26 µM,17.6 µM,4 µM,37.9 µM,3.31 µM,3.15 µM,9.38 µM,10.2 µM,3.8 µM,3.15 µM,–
Cc1cc(NS(=O)(=O)c2ccc(NC(=O)c3ccc4nc5ccccc5c(Nc5ccc(S(=O)(=O)N=C(N)N)cc5)c4c3)cc2)no1,33.6 µM,34.5 µM,34.4 µM,28.5 µM,37.3 µM,31.1 µM,31.8 µM,32.3 µM,41.4 µM,38.5 µM,–
NNC(=O)CC(=O)Nc1ccc(Cl)cc1,> 100 µM,> 100 µM,> 100 µM,> 100 µM,> 100 µM,> 100 µM,> 100 µM,> 100 µM,> 100 µM,> 100 µM,–
O=C1Cc2c(-c3ccc(Cl)cc3)cc(-c3ccccc3)nc2-c2ccccc2N1,19.4 µM,10.7 µM,12.9 µM,44.9 µM,48.9 µM,20.3 µM,> 81 µM,> 61.4 µM,55.8 µM,12.9 µM,–
CC/C(Cl)=N\OC(=O)Nc1ccc(OC)cc1,3.07 µM,44.9 µM,13.8 µM,28.3 µM,32.1 µM,6.52 µM,11.3 µM,31.3 µM,11.3 µM,3.92 µM,–
O=C1COC(c2ccccc2O)=NN1CCCN1CCCC1,> 100 µM,> 100 µM,> 100 µM,> 100 µM,> 100 µM,> 100 µM,> 100 µM,> 100 µM,> 100 µM,> 100 µM,–
O=C(Nc1ccccc1)c1cc2c(cc1Cl)Sc1nccn1S2(=O)=O,7.53 µM,> 60.6 µM,> 72.9 µM,> 100 µM,> 89.8 µM,> 71.2 µM,> 86.3 µM,40.5 µM,> 100 µM,> 56.6 µM,28.6 µM
CCOC(=O)C(=[N+]=[N-])C(=O)C[N+]12CCN(CC1)CC2,> 100 µM,> 100 µM,> 100 µM,> 100 µM,> 100 µM,> 100 µM,> 100 µM,> 100 µM,> 100 µM,> 100 µM,–
CCCC(Sc1nc(N)nc2nc[nH]c12)C(=O)O (stereo unspecified),> 100 µM,> 100 µM,> 100 µM,> 100 µM,> 100 µM,> 100 µM,> 100 µM,> 100 µM,> 100 µM,> 100 µM,–
CCSSCS(C)(=O)=O,> 100 µM,> 100 µM,> 100 µM,96.4 µM,> 100 µM,49.5 µM,> 100 µM,50.5 µM,> 100 µM,23.5 µM,–
